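Assay format: 96-well plates, 48-hour exposure. Definition used: TGI = concentration required for complete inhibition of growth.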
Each compound was assayed on 786-0 renal (assay: NCI anticancer screen, dose series, 48 h).

Compound	TGI [µM]
CCOC(=O)C1(Cc2ccc3c(c2)CCC3)Cc2cc3c(cc2C1)CCC3	> 100
C=CCNC1=C2C[C@@H](C)C[C@@H](OC)[C@H](OC(=O)CCCCN)[C@H](C)/C=C(\C)[C@@H](OC(N)=O)[C@H](OC)/C=C\C=C(/C)C(=O)NC(=CC1=O)C2=O	26.5
C[C@@H]1C[C@H]2[C@@H]3CCC4=CC(=O)C=C[C@]4(C)[C@@]3(Cl)[C@@H](Cl)C[C@]2(C)[C@@]1(O)C(=O)COP(=O)(O)O	> 100
O=Cc1cc2c(cc1-c1c(C=O)ccc3c1OCO3)OCO2	> 10
COC(=O)Cc1cc(O)c(C/C=C(\C)CC/C=C(\C)C(O)C(=O)C=C(C)C)cc1O (configuration not stated)	> 100
COc1ccc(/C=C(/C(=O)c2ccc(Cl)cc2)N2C=CC=CC2=C(C#N)C#N)cc1OC	5.29
Nc1nc(Cl)c(N)c(NC23CC4CC(CC(C4)C2)C3)n1	3.03

These compounds were tested on A498 renal (assay: NCI anticancer screen, dose series, 48 h).

Compound	TGI [µM]
CCOC(=O)C1(Cc2ccc3c(c2)CCC3)Cc2cc3c(cc2C1)CCC3	> 100
C=CCNC1=C2C[C@@H](C)C[C@@H](OC)[C@H](OC(=O)CCCCN)[C@H](C)/C=C(\C)[C@@H](OC(N)=O)[C@H](OC)/C=C\C=C(/C)C(=O)NC(=CC1=O)C2=O	25.9
C[C@@H]1C[C@H]2[C@@H]3CCC4=CC(=O)C=C[C@]4(C)[C@@]3(Cl)[C@@H](Cl)C[C@]2(C)[C@@]1(O)C(=O)COP(=O)(O)O	> 100
COc1ccc(/C=C(/C(=O)c2ccc(Cl)cc2)N2C=CC=CC2=C(C#N)C#N)cc1OC	30.5
Nc1nc(Cl)c(N)c(NC23CC4CC(CC(C4)C2)C3)n1	8.13

What follows are compounds tested on A549 NSCLC (assay: NCI anticancer screen, dose series, 48 h).

Compound	TGI [µM]
CCOC(=O)C1(Cc2ccc3c(c2)CCC3)Cc2cc3c(cc2C1)CCC3	> 100
C=CCNC1=C2C[C@@H](C)C[C@@H](OC)[C@H](OC(=O)CCCCN)[C@H](C)/C=C(\C)[C@@H](OC(N)=O)[C@H](OC)/C=C\C=C(/C)C(=O)NC(=CC1=O)C2=O	25.2
C[C@@H]1C[C@H]2[C@@H]3CCC4=CC(=O)C=C[C@]4(C)[C@@]3(Cl)[C@@H](Cl)C[C@]2(C)[C@@]1(O)C(=O)COP(=O)(O)O	> 100
O=Cc1cc2c(cc1-c1c(C=O)ccc3c1OCO3)OCO2	> 10
COC(=O)Cc1cc(O)c(C/C=C(\C)CC/C=C(\C)C(O)C(=O)C=C(C)C)cc1O (configuration not stated)	> 100
COc1ccc(/C=C(/C(=O)c2ccc(Cl)cc2)N2C=CC=CC2=C(C#N)C#N)cc1OC	30.4
Nc1nc(Cl)c(N)c(NC23CC4CC(CC(C4)C2)C3)n1	6.16

These compounds were tested on ACHN renal (assay: NCI anticancer screen, dose series, 48 h).

Compound	TGI [µM]
CCOC(=O)C1(Cc2ccc3c(c2)CCC3)Cc2cc3c(cc2C1)CCC3	> 100
C=CCNC1=C2C[C@@H](C)C[C@@H](OC)[C@H](OC(=O)CCCCN)[C@H](C)/C=C(\C)[C@@H](OC(N)=O)[C@H](OC)/C=C\C=C(/C)C(=O)NC(=CC1=O)C2=O	34
C[C@@H]1C[C@H]2[C@@H]3CCC4=CC(=O)C=C[C@]4(C)[C@@]3(Cl)[C@@H](Cl)C[C@]2(C)[C@@]1(O)C(=O)COP(=O)(O)O	> 100
O=Cc1cc2c(cc1-c1c(C=O)ccc3c1OCO3)OCO2	> 10
COC(=O)Cc1cc(O)c(C/C=C(\C)CC/C=C(\C)C(O)C(=O)C=C(C)C)cc1O (configuration not stated)	71
COc1ccc(/C=C(/C(=O)c2ccc(Cl)cc2)N2C=CC=CC2=C(C#N)C#N)cc1OC	11.9
Nc1nc(Cl)c(N)c(NC23CC4CC(CC(C4)C2)C3)n1	4.69

The compounds below were run on BT-549 breast (assay: NCI anticancer screen, dose series, 48 h).

Compound	TGI [µM]
CCOC(=O)C1(Cc2ccc3c(c2)CCC3)Cc2cc3c(cc2C1)CCC3	> 100
C=CCNC1=C2C[C@@H](C)C[C@@H](OC)[C@H](OC(=O)CCCCN)[C@H](C)/C=C(\C)[C@@H](OC(N)=O)[C@H](OC)/C=C\C=C(/C)C(=O)NC(=CC1=O)C2=O	33.4
C[C@@H]1C[C@H]2[C@@H]3CCC4=CC(=O)C=C[C@]4(C)[C@@]3(Cl)[C@@H](Cl)C[C@]2(C)[C@@]1(O)C(=O)COP(=O)(O)O	> 100
O=Cc1cc2c(cc1-c1c(C=O)ccc3c1OCO3)OCO2	> 10
COC(=O)Cc1cc(O)c(C/C=C(\C)CC/C=C(\C)C(O)C(=O)C=C(C)C)cc1O (configuration not stated)	72.8
COc1ccc(/C=C(/C(=O)c2ccc(Cl)cc2)N2C=CC=CC2=C(C#N)C#N)cc1OC	22.5
Nc1nc(Cl)c(N)c(NC23CC4CC(CC(C4)C2)C3)n1	6.76

These compounds were tested on CAKI-1 renal (assay: NCI anticancer screen, dose series, 48 h).

Compound	TGI [µM]
CCOC(=O)C1(Cc2ccc3c(c2)CCC3)Cc2cc3c(cc2C1)CCC3	> 100
C=CCNC1=C2C[C@@H](C)C[C@@H](OC)[C@H](OC(=O)CCCCN)[C@H](C)/C=C(\C)[C@@H](OC(N)=O)[C@H](OC)/C=C\C=C(/C)C(=O)NC(=CC1=O)C2=O	33.2
C[C@@H]1C[C@H]2[C@@H]3CCC4=CC(=O)C=C[C@]4(C)[C@@]3(Cl)[C@@H](Cl)C[C@]2(C)[C@@]1(O)C(=O)COP(=O)(O)O	> 100
O=Cc1cc2c(cc1-c1c(C=O)ccc3c1OCO3)OCO2	> 10
COc1ccc(/C=C(/C(=O)c2ccc(Cl)cc2)N2C=CC=CC2=C(C#N)C#N)cc1OC	5.69
Nc1nc(Cl)c(N)c(NC23CC4CC(CC(C4)C2)C3)n1	3.84

These compounds were tested on CCRF-CEM leukemia (assay: NCI anticancer screen, dose series, 48 h).

Compound	TGI [µM]
CCOC(=O)C1(Cc2ccc3c(c2)CCC3)Cc2cc3c(cc2C1)CCC3	35
C=CCNC1=C2C[C@@H](C)C[C@@H](OC)[C@H](OC(=O)CCCCN)[C@H](C)/C=C(\C)[C@@H](OC(N)=O)[C@H](OC)/C=C\C=C(/C)C(=O)NC(=CC1=O)C2=O	56.4
O=Cc1cc2c(cc1-c1c(C=O)ccc3c1OCO3)OCO2	> 10
COC(=O)Cc1cc(O)c(C/C=C(\C)CC/C=C(\C)C(O)C(=O)C=C(C)C)cc1O (configuration not stated)	10.3
COc1ccc(/C=C(/C(=O)c2ccc(Cl)cc2)N2C=CC=CC2=C(C#N)C#N)cc1OC	0.665
Nc1nc(Cl)c(N)c(NC23CC4CC(CC(C4)C2)C3)n1	5

Each compound was assayed on COLO 205 colon (assay: NCI anticancer screen, dose series, 48 h).

Compound	TGI [µM]
CCOC(=O)C1(Cc2ccc3c(c2)CCC3)Cc2cc3c(cc2C1)CCC3	> 100
C=CCNC1=C2C[C@@H](C)C[C@@H](OC)[C@H](OC(=O)CCCCN)[C@H](C)/C=C(\C)[C@@H](OC(N)=O)[C@H](OC)/C=C\C=C(/C)C(=O)NC(=CC1=O)C2=O	16.6
